According to patent US20190328752A1, “COMPOUNDS FOR THE TREATMENT OF NIEMANN-PICK DISEASE TYPE C1” (UNIVERSITEIT MAASTRICHT, priority 2016, published 2019):
Read-outs that look alike come from different tables or passages of the source.

What was measured:
[1] = system: NPC1WT BMDMs; experiment: TNFα secretion (ELISA) by oxLDL/LPS-stimulated BMDMs, wild type; type: cell-based, mice; conditions: 0.6 μM sitostanol 4 hours after oxLDL, then LPS; vs carrier control; p=0.000; FIG. 1A
Protocol: (§1) Bone-marrow derived cells (BMDCs) were isolated from tibea and femurs of NPC1 wild type (WT) and mutant mice on a C57BL/6 background. BMDCs were cultured for 8-9 days in RPMI-1640 (GIBCO Invitrogen, Breda, The Netherlands) with 10% heat-inactivated fetal calf serum (Bodinco B. V. Alkmaar, The Netherlands), penicillin (100 U/ml), streptomycin (100 μg/ml) and L-glutamine (2 mM) (all GIBCO invitrogen, Breda, The Netherlands) enriched with 20% L929-conditioned medium (LCM) to generate bone marrow-derived macrophages (BMDMs). After attachment, the BMDMs were seeded at 350,000 cells per well in 24 wells plates and incubated with oxLDL for 24. After the oxLDL stimulation, the cells were washed and incubated with cyclodextrin (carrier control) or 0.6 μM sitostanol for 4 hours. The BMDMs were subsequently washed and stimulated with 100 ng/ml LPS for 4 hours to generate an inflammatory response. Finally, BMDMs were lysed for RNA isolation. Gene expression analysis of inflammatory (TNFα, Arginase 1 and inducible NOS), anti-inflammatory (IL-10) and lysosomal cholesterol trafficking (NPC1 and NPC2) genes was performed. […]
(§2) Mouse TNFα secreted protein levels were determined by using the TNFα ELISA kit (mouse TNFα ELISA Ready-SET-Go!, eBioscience, San Diego, Calif.). […] Optical density (OD) was measured at 450 nm by using a spectrophotometer and TNFα concentrations were determined.

[2] = system: NPC1WT BMDMs; experiment: Gene expression of inflammatory mediators in oxLDL/LPS-stimulated BMDMs, wild type; type: cell-based, mice; conditions: 0.6 μM sitostanol; p=0.028; FIG. 1B
Protocol: (§3) Bone-marrow derived cells (BMDCs) were isolated from tibea and femurs of NPC1 wild type (WT) and mutant mice on a C57BL/6 background. BMDCs were cultured for 8-9 days in RPMI-1640 (GIBCO Invitrogen, Breda, The Netherlands) with 10% heat-inactivated fetal calf serum (Bodinco B. V. Alkmaar, The Netherlands), penicillin (100 U/ml), streptomycin (100 μg/ml) and L-glutamine (2 mM) (all GIBCO invitrogen, Breda, The Netherlands) enriched with 20% L929-conditioned medium (LCM) to generate bone marrow-derived macrophages (BMDMs). After attachment, the BMDMs were seeded at 350,000 cells per well in 24 wells plates and incubated with oxLDL for 24. After the oxLDL stimulation, the cells were washed and incubated with cyclodextrin (carrier control) or 0.6 μM sitostanol for 4 hours. The BMDMs were subsequently washed and stimulated with 100 ng/ml LPS for 4 hours to generate an inflammatory response. Finally, BMDMs were lysed for RNA isolation. Gene expression analysis of inflammatory (TNFα, Arginase 1 and inducible NOS), anti-inflammatory (IL-10) and lysosomal cholesterol trafficking (NPC1 and NPC2) genes was performed. Furthermore, the supernatant was frozen until protein expression analysis of the pro-inflammatory TNFα was performed by Enzyme-Linked Immunosorbent Assay (ELISA).

[3] = system: NPC1mut BMDMs; experiment: Gene expression of inflammatory mediators in oxLDL/LPS-stimulated BMDMs, mutant; type: cell-based, mice; conditions: FIG. 1B
Protocol: as §3

[4] = system: NPC1mut BMDMs; experiment: TNFα secretion (ELISA) by oxLDL/LPS-stimulated BMDMs, mutant; type: cell-based, mice; conditions: 0.6 μM sitostanol 4 hours after oxLDL, then LPS; vs carrier control; p=0.000; FIG. 1A
Protocol: as §1, §2

[5] = humans, cited from earlier work
[6] = in vivo; cited from earlier work

| Compound | TNFα secretion [1] | gene expression of IL-10 [2] | gene expression of arginase 1 (M2 macrophage marker) ([3]; 0.6 μM sitostanol vs carrier control, p=0.000) | gene expression of Tnfα ([3]; 0.6 μM sitostanol vs carrier control, p=0.136) | iNOS/arginase 1 gene expression ratio ([3]; 0.6 μM sitostanol vs control-treated NPC1mut BMDMs, p=0.074) | TNFα secretion [4] | plasma concentration ([5]; 3 grams per day) | plasma concentration ([5]; 9 grams per day) | ability to cross the blood brain barrier [6] |
| --- | --- | --- | --- | --- | --- | --- | --- | --- | --- |
| CC[C@H](CC[C@@H](C)[C@H]1CC[C@H]2[C@@H]3CC[C@H]4C[C@@H](O)CC[C@]4(C)[C@H]3CC[C@]12C)C(C)C [sitostanol] | significantly reduced | increased | significantly increased | trend towards reduced expression | trend towards a reduced | significantly reduced | 40.9 microgram per dl | 57.2 microgram per dl |  |
| cyclodextrin |  |  |  |  |  |  |  |  | inability of cyclodextrin to cross the blood brain barrier |
